The values that follow come from patent US20190125753A1, “COMPOUNDS AND METHODS FOR INCREASING HEMATOPOIESIS” (University of Southern California, priority 2016, published 2019).

The test system of assay [1] is R1 mESCs. Particulars: Wnt dependent manner; cited from earlier work.
The next assay has as its system Wnt/β-catenin pathway. The assay can be described thus: SuperTOPFLASH (STF1.1 Hek-293) Wnt/β-catenin-driven luciferase reporter. In kind it is cell-based. How it is done:
A. Wnt/β-Catenin Activity: The Initial SuperTOPFLASH Screen.
(§1) Hek293 cells were stably transfected with plasmid that contains multiple TCF/LEF fragments in front of Luciferase gene. Wnt/β-catenin activity was determined from luciferase expression levels. […] Briefly, stably transfected Hek-293, STFI.1 (Wnt/β-catenin-driven luciferase) and Survivin-Hek-293 (1 Kb Human survivin promoter-driven luciferase) cells were maintained in DMEM, 10% FBS, Pen/Strep with 400 μg/mL G418 or 2 μg/mL puromycin, respectively. To check the activity of ICG-001, YH249, and YH250, the cells were split into white-opaque 96-well plates at 10,000 cells per well and allowed to attach overnight. For SuperTOPLASH, the inhibitors were added to the cells and pre-incubated for 1 hour prior to stimulation with 10 mM Li Cl for 24 hours. Luciferase activity was read using BrightGlo (Promnega) luciferase substrate. For survivin/luc, the inhibitors were added to the cells and incubated for 24 hours prior to readout. To calculate IC5o values, the resulting curve was fitted to a four-parameter logistic model (4PL) using GraphPad Prism 5 software.
(§2) An endogenous human survivin 1 kb promoter was inserted before a luciferase gene. […] R1 and R2 were diversified in this study. Percent inhibition of luciferase activity was calculated according to the following equations; % inhibition of STF 1.1 reporter activity=(I−RLU(10 mM LiCl) treated/RLU(10 omM LiCl) vehicle×control)100, % inhibition of Survivin reporter activity=(1−RLUtreated/RLU vehicle control)×100. Error bars indicate the mean±SE of 3 separate experiments. Selectivity (FIG. 2H) was calculated by IC50 value for Survivin-Hek-293/IC50 value for STF 1.1.
For orientation: Reporter assays use an easily measured gene product as a stand-in for the process of interest.

In a further assay the test system is Human survivin promoter. Briefly: Survivin/luciferase reporter (Survivin-Hek-293). The class given is cell-based. As for the experimental part: as §1
B. Survivin Expression Level: The Secondary Screen.
as §2

The target in assay [2] is T1, p300/γ-catenin interaction (Mus musculus, UniProt B2RWS6).
T1 construct: bone marrow Sca-1posit cells were isolated with Anti-Sca-1 microbeads; from tissue; host or cells: bone marrow Sca-1 positive cells of female C57/Black mice dosed in vivo
Briefly: Co-IP of bone marrow Sca-1posit cells from treated mice (anti-p300). In kind it is in vivo. Particulars: YH250 2 mg/kg subcutaneously, 24 hrs. How it is done:
(§3) YH250 was used in this study. Female C57/Black mice were administrated with either DMSO (solvent control) or YH250 (2 mg/kg) subcutaneously. 24 hrs later, bone marrow Sca-1posit cells were isolated with Anti-Sca-1 microbeads (Miltenyi Biotec, Cat#130-092-529) for co-immunoprecipitation (FIG. 4A). Cells were then lysed and incubated with either anti-CBP (A22) or anti-p300 (C20) antibodies. Then, the immunoprecipitation complex were electrophoresed and detected with antibodies to either β-catenin or γ-catenin. […] This confirms that YH250 directly disrupts the p300/catenin interaction thereby enhancing the CBP/catenin interaction in HSPCs.

Assay [3] has as its target T2, CBP/γ-catenin interaction (Mus musculus, UniProt P45481).
T2 construct: bone marrow Sca-1posit cells were isolated with Anti-Sca-1 microbeads; from tissue; host or cells: bone marrow Sca-1 positive cells of female C57/Black mice dosed in vivo
Briefly: Co-IP of bone marrow Sca-1posit cells from treated mice (anti-CBP). In kind it is in vivo. Particulars: YH250 2 mg/kg subcutaneously, 24 hrs. As for the experimental part:
as §3

The next assay deals with T3, p300 (Mus musculus, UniProt B2RWS6).
T3 construct: endogenous in cells; host or cells: lysates of mouse C2C12 myoblasts
The assay can be described thus: Bio-249 affinity pull-down from C2Cl2 lysates, p300 immunoblot. The class given is binding. How it is done: YH249 and YH250 were selected from the compounds described herein for further testing. Co-immunoprecipitation (CO-IP) was performed with mouse myoblast C2Cl2 cells. Cells were treated with DMSO (control), or YH249, or YH250 for 24 hours. Cell lyses were pulled down with anti-p300 or anti-CBP antibodies, run on gel and probed with anti-β-catenin antibody. […] A biotinylated version of YH249 (Bio-249) was prepared via the propargyl amide variant. Using a biotin with a linker and a terminal azide residue, we were able to couple the biotin to the YH249 core via a 3+2 cyclization reaction to provide Bio-249. Bio-249 was incubated with lysates from C2Cl2 myoblasts, either in the presence or absence of competitor YH249 for 4 h at 4° C. and then bound to streptavidin agarose beads. After extensive washing the bound proteins were eluted and run out on an […].
On the technique in general: A western blot detects proteins with antibodies after separation by electrophoresis.

The subject of another assay is mouse bone marrow cells. The assay can be described thus: Colony-forming cell (CFC) assay after 4 h in vitro treatment. In kind it is cell-based. How it is done: Brief (less than 24 hours) treatment of HSC with YH250 or DMSO was conducted before the CFC or CFU-S12 assay. Mouse bone marrow cells were treated with DMSO (solvent control) or YH250 for 4 hours in serum free HSC expansion medium before the cells were recovered for a colony forming assay. 7-8 Days after cell plating in methylcellulose medium (Stemcell Technologies, Methocult GF M3434, Cat#3434), colonies were scored, and the cells from each plate were recovered and counted.
In fact, they also show similar biological functions with respect to HSPC.

The next assay deals with bone marrow cells. The assay can be described thus: Brief (4 h) incubation of bone marrow cells, 14 days culture, FACS. In kind it is cell-based, mouse. Particulars: 0.5 μM 4 hrs, 14 days culture. How it is done: Bone marrow cells were treated with DMSO or YH250 (0.5 μM) for 4 hours, then the compound was removed and the cells cultured in QBSF-58 medium for 14 days with 10 ng/ml of SCF, TPO, Flt3 ligand, and IL-6. At the end of culture, cells were recovered and analyzed for LSK cells with FACS.
In a further study, female CD45.1 mice bone marrow cells were incubated with DMSO, or YH249 (0.5 μM) or YH250 (0.5 μM) for 4 hrs in QBSF-58 media, then 2×10^4 cells were plated in QBSF-58 medium containing SCF, TPO, Flt3 and IL-6 (10 ng/ml for each) for 14 days. Cells were then recovered from plate for FACS analysis. […] Correspondingly, there are higher LSK cells (52%, 60% and 70% respectively for DMSO, YH249 and YH250). From every 10,000 analyzed cells, LSKCD34negt cell numbers are 437, 663 and 2051 for DMSO, YH249 and YH250 treated cells, respectively.

Assay [4] relates to R1 mESCs. The assay can be described thus: Maintenance of mouse ES cell pluripotency, feeder free, 5 days. In kind it is cell-based. Particulars: with 50 ng/ml Wnt3a or 3 μM CHIR99021; 500 nM YH249 or 200 nM YH250, 5 days. How it is done: (§4) We also determined that IQ-1 indirectly, via binding to the PR72/130 subunit of PP2A, inhibited the p300/β-catenin interaction (Id). Therefore, we anticipated that YH249/250 should also maintain mESC pluripotency in a Wnt dependent manner. To test his, R1 mESCs were cultured under feeder free conditions in the presence or absence of YH249/250 for 5 days. […] Pluripotency markers, Oct4, Nanog, Sox2, SSEA-1 and ALP, were all expressed in the cells treated with Wnt3a and YH250 (FIG. 28b). Moreover, Wnt3a could be replaced with the selective GSK-3 inhibitor CHIR99021, which activates the Wnt signaling pathway (FIG. 28a, lower panel). […] In the event, similarly to ID-8, the combination of Wnt3a and YH249/250 provided morphologically undifferentiated colonies of H9 human embryonic stem cells (hESCs) without FGF and TGF (FIG. 28c). hPSC markers were detected by ALP staining and immunofluorescence (FIG. 28d). In addition to H9 cells, two other hESC lines and a human induced pluripotent stem (iPS) cell line could be also maintained undifferentiated morphology utilizing the same conditions (not shown).
Specifically, FIG. 28A-28D, show maintenance of ESC's pluripotency by YH249 and YH250. […] 28A, Typical colony morphologies of RI mouse ES cells cultured 5 days in [upper panel] 3 μM CHIR99021 and 1 μM PD0325901 (2i) medium, basal medium (2i medium without CHIR99021 and PD0325901), basal medium supplemented with 50 ng/ml Wnt3a alone, [middle panel] combination of 50 ng/ml Wnt3a and 2 μM IQ-1, 500 nM YH249 or 200 nM YH250, [lower panel] 3 μM of CHIR99021 alone, and combination of 3 μM CHIR99021 and 500 nM YH249 or 200 nM YH250. […] The blue signal (Wnt3a panels) represents DAPI nuclear staining. Bars indicate […]. […] The blue signal (Wnt3a panels) represents DAP1 nuclear staining. Scale bars indicate 100 am.

Assay [5] has as its system H9 human embryonic stem cells. Briefly: Maintenance of human ES cell pluripotency, 5 days. The class given is cell-based. Particulars: 25 ng/ml Wnt3a; 500 nM YH249 or 200 nM YH250, 5 days, without FGF and TGF. As for the experimental part: as §4
Specifically, FIG. 28A-28D, show maintenance of ESC's pluripotency by YH249 and YH250. […] 28A, Typical colony morphologies of RI mouse ES cells cultured 5 days in [upper panel] […]

The mark [6] stands for this setting: 4 hours incubation then CFC assay.

T3 sequence (B2RWS6 whole entry): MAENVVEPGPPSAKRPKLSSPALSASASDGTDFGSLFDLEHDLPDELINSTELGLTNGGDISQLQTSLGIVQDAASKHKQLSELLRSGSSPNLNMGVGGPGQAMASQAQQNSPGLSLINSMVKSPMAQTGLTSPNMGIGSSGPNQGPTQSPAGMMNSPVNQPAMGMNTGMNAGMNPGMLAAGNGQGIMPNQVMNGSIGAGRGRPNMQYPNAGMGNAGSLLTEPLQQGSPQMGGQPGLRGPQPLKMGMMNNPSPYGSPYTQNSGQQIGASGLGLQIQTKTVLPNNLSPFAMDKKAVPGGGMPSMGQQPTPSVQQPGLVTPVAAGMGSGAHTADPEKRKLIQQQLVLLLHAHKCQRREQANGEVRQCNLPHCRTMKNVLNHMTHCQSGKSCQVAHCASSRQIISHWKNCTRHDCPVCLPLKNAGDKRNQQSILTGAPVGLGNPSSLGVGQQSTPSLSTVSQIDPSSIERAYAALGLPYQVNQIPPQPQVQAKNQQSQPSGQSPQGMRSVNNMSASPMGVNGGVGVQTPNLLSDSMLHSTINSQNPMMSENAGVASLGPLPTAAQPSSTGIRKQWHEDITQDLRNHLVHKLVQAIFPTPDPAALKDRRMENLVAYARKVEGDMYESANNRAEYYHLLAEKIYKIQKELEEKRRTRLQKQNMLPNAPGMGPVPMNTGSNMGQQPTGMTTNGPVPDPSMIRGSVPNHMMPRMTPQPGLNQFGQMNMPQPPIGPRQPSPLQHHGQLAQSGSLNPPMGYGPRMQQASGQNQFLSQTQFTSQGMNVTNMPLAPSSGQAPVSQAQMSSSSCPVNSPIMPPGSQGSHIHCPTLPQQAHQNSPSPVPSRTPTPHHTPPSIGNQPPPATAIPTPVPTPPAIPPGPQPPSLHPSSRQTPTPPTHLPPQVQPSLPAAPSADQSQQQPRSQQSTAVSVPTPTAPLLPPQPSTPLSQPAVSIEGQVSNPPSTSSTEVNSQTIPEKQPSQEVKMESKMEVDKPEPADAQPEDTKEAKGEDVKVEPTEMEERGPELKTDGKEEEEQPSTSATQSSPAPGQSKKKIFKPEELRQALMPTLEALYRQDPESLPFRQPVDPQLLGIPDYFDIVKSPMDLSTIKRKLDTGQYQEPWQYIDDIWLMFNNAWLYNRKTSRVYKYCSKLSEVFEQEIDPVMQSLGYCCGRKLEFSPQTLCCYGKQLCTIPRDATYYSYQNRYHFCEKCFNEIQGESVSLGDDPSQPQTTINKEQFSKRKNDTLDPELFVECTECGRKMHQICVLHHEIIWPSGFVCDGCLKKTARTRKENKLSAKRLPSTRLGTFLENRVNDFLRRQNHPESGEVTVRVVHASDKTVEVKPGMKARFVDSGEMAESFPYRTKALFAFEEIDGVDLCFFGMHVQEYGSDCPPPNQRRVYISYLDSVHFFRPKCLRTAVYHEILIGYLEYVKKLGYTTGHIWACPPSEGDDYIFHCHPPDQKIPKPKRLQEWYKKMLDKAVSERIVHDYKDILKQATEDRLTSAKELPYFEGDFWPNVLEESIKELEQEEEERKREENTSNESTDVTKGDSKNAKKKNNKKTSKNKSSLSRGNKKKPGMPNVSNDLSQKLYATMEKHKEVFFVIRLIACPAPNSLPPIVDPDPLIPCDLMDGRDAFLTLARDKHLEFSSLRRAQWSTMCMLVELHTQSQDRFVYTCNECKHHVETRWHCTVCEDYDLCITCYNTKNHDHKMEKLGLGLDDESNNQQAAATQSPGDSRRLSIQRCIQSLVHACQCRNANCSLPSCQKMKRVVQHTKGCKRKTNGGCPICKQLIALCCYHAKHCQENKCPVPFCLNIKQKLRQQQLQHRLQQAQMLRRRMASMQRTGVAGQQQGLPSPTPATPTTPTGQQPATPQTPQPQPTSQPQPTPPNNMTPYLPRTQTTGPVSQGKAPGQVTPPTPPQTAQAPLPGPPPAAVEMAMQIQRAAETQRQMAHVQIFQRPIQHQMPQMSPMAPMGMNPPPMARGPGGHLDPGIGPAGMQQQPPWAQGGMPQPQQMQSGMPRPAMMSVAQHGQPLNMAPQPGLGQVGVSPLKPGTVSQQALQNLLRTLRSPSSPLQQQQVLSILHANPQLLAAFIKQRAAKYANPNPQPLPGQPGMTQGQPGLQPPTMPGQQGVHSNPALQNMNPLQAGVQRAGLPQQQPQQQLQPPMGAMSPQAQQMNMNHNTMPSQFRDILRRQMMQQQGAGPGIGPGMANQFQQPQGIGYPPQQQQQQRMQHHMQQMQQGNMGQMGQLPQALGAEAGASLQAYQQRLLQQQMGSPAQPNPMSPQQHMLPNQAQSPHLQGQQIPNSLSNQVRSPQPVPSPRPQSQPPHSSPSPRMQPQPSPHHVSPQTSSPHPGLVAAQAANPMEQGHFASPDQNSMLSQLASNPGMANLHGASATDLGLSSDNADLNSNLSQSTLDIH
T1 sequence (B2RWS6 2-2412 limits assumed): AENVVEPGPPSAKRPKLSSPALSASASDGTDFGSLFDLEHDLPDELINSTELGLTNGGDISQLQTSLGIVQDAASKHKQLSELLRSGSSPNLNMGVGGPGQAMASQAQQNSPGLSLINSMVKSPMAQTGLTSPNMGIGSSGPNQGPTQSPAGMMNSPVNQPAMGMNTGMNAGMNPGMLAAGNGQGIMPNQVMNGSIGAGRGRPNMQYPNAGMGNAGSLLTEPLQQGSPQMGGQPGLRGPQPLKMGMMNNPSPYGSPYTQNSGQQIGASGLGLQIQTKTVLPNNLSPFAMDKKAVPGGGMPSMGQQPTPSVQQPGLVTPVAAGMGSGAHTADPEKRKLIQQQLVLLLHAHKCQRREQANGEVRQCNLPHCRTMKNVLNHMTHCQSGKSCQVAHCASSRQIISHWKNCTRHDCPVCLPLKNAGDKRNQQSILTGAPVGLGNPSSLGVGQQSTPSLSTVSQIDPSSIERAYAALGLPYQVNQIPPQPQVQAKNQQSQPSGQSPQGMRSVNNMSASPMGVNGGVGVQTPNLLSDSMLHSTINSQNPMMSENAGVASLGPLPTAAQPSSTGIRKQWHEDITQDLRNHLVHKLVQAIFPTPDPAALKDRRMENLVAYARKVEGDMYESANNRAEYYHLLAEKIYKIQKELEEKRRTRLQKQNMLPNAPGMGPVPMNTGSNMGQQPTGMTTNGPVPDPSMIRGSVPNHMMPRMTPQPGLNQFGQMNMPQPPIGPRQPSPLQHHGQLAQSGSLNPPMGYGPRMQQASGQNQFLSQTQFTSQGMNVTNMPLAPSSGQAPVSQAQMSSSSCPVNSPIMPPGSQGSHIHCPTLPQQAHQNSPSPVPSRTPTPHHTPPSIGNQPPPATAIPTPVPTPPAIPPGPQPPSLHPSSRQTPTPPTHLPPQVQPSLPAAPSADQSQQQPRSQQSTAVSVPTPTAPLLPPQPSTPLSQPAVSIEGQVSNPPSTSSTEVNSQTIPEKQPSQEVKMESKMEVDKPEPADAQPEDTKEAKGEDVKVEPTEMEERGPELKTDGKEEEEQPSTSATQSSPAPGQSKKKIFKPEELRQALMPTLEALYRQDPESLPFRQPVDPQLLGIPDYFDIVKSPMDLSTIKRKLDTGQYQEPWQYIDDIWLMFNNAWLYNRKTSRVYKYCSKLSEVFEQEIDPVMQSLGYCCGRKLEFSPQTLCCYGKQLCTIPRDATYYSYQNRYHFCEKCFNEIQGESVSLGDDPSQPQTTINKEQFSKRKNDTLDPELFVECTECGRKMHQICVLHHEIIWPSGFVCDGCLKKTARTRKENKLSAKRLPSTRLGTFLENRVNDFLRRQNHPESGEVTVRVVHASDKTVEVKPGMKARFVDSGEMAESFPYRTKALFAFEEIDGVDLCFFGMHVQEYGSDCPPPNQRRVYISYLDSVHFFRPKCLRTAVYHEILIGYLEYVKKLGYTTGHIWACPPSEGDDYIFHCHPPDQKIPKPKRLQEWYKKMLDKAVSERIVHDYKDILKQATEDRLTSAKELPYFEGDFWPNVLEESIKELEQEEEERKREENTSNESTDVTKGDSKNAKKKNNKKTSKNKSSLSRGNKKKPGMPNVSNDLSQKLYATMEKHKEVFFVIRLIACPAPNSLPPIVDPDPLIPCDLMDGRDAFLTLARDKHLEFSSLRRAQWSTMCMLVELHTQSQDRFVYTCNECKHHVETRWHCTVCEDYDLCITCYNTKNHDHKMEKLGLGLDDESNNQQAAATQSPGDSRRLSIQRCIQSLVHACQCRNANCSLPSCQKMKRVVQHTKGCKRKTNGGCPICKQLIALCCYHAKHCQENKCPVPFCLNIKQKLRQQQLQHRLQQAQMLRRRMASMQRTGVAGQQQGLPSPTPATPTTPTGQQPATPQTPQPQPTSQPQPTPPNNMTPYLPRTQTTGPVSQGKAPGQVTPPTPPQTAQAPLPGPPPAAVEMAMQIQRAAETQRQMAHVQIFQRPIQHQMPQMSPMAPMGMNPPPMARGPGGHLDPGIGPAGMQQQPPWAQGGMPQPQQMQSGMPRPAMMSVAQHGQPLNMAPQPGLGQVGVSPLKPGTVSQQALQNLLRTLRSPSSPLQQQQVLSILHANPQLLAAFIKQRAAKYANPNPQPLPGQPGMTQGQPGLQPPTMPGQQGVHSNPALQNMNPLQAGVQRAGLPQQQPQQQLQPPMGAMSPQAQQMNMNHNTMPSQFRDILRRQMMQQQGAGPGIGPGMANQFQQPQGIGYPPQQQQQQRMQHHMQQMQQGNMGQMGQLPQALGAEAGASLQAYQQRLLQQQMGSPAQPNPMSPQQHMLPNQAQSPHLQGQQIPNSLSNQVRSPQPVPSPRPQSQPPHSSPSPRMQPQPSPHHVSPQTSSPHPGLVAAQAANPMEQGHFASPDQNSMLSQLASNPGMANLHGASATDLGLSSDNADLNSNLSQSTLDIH

As for `CC(=O)c1ccc(NN=C(C(N)=O)C2=NC(C)(C)Cc3ccccc32)cc1` [IQ-1], the “mESC pluripotency (previously reported)” value with R1 mESCs [1] was “maintain long term mESC pluripotency”.
With `O=C1[C@H](Cc2ccc(O)cc2)N2C(=O)CCN(C(=O)NCc3ccccc3)[C@H]2CN1Cc1cccc2ccccc12` [ICG-001, reference compound], the “luciferase activity (Wnt/β-catenin activity)” value in the assay with Wnt/β-catenin pathway (Hek293 TCF/LEF luciferase) was “luciferase activity was decreased”. Moreover, the “survivin expression level in survivin-reporter system” value in the assay on Human survivin promoter was “significantly decreased in a dose dependent manner”. Moreover, the p300/γ-catenin interaction entry in [2] is “promotes p300/γ-catenin interaction”. The CBP/γ-catenin interaction entry in assay [3] is listed as “inhibits CBP/γ-catenin interaction”.
As for `COc1cccc(CNC(=O)N2C3CN(Cc4cccc(Cl)c4N(C)C)C(=O)[C@H](Cc4ccc(O)cc4)N3C(=O)CN2C)c1OC` (some centres unmarked) [YH249], the IC50 in the assay on Wnt/β-catenin pathway (Homo sapiens, HEK293, STF1.1 Hek-293, 1 hour pre-incubation, 10 mM LiCl 24 hours) was less than 0.1 µM; in the assay with Human survivin promoter (Homo sapiens, Survivin-Hek-293, 24 hours, read-out: survivin/luciferase reporter: did not inhibit up to) it was more than 20 µM. The “binding to p300 (affinity precipitation, p300 immunoblot)” value on p300 (C2Cl2 lysates, 4 h at 4° C., streptavidin agarose beads) is on record as “directly binding to p300”. Also, the “competition of the band precipitated by Bio-249” value on p300 (free competitor) is given as “strongly competed out”. The “CELL#/plate” value with mouse bone marrow cells (setting [6]) was 5.2 × 10^5. Besides, the “CFC#/plate” value in the assay on mouse bone marrow cells (setting [6]) came out at 27. Also, in the assay with mouse bone marrow cells (4 hours treatment, cells recovered from plate), the “cell number in each plate vs DMSO” value was “higher cell number in each plate”. In the assay with bone marrow cells (DMSO 9%), the lineage negative cell is on record as 17%. Moreover, in the assay with bone marrow cells (DMSO 52%), the LSK cells is reported as 60%. In addition, the LSKCD34negt cell numbers with bone marrow cells (from every 10,000 analyzed cells, DMSO 437) came to 663. Moreover, the mESC pluripotency result in the assay with R1 mESCs [4] is “maintain pluripotency”. Also, the hESC pluripotency result in [5] is “maintain pluripotency”.
